Experimental data taken from the NIST ThermoML archive (doi:10.1016/j.fluid.2007.06.006).
Numbers after ± are expanded uncertainties.

Settings: Liquid

| Structure (SMILES) | vapor or sublimation pressure (355.83 K) [kPa] | vapor or sublimation pressure (365.99 K) [kPa] | vapor or sublimation pressure (373.87 K) [kPa] | vapor or sublimation pressure (380.27 K) [kPa] | vapor or sublimation pressure (385.71 K) [kPa] | vapor or sublimation pressure (390.45 K) [kPa] | vapor or sublimation pressure (392.2 K) [kPa] | vapor or sublimation pressure (377.95 K) [kPa] | vapor or sublimation pressure (389.37 K) [kPa] | vapor or sublimation pressure (398.01 K) [kPa] | vapor or sublimation pressure (405.04 K) [kPa] | vapor or sublimation pressure (411.02 K) [kPa] | vapor or sublimation pressure (416.25 K) [kPa] | vapor or sublimation pressure (418.18 K) [kPa] |
| --- | --- | --- | --- | --- | --- | --- | --- | --- | --- | --- | --- | --- | --- | --- |
| COCC(C)O (centres undefined) [1-methoxy-2-propanol] | 26.7 ± 0.2 | 40 ± 0.2 | 53.3 ± 0.2 | 66.7 ± 0.2 | 80 ± 0.2 | 93.3 ± 0.3 | 98.7 ± 0.3 |  |  |  |  |  |  |  |
| COCC(C)OC(C)=O (centres undefined) [1-methoxy-2-propyl acetate] |  |  |  |  |  |  |  | 26.7 ± 0.2 | 40 ± 0.2 | 53.3 ± 0.2 | 66.7 ± 0.2 | 80 ± 0.2 | 93.3 ± 0.3 | 98.7 ± 0.3 |
